pIC50: −log10 of the molar value.
These molecules were tested against T1, Dihydroorotate dehydrogenase (Plasmodium falciparum, UniProt Q54A96) (assay: Inhibition of Plasmodium falciparum HIs6-tagged DHODH expressed in Escherichia coli DH5alpha using L-dihydroorotate as substrate by DCIP-based spectrophotometric analysis).
T1 sequence (Q54A96 whole entry): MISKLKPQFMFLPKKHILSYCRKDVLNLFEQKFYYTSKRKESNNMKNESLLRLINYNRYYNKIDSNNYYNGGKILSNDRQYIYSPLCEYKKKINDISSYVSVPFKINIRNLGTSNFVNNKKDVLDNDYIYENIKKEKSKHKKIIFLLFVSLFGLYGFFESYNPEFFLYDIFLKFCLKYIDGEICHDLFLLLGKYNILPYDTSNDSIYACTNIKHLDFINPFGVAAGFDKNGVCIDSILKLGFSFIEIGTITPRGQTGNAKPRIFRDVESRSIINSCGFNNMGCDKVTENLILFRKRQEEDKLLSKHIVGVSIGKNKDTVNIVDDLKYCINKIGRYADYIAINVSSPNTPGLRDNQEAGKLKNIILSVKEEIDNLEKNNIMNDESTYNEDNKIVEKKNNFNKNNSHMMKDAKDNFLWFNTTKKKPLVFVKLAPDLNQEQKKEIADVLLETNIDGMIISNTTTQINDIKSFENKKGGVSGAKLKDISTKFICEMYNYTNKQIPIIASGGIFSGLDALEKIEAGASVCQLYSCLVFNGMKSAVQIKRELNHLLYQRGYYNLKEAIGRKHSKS

Row | pIC50 | Structure (SMILES)
1 | 6.82 | Cc1ccc(NC(=O)c2ccc3ccccc3c2)c(Cl)c1
2 | 6.52 | Cc1cccc(NC(=O)c2cccc([N+](=O)[O-])c2C)c1
3 | 7.00 | Cc1c(C(=O)Nc2cccc(Br)c2)cccc1[N+](=O)[O-]
4 | 6.60 | Cc1c(C(=O)Nc2ccc(Cl)c(Cl)c2)cccc1[N+](=O)[O-]
5 | 6.60 | COc1ccccc1NC(=O)Nc1cccc2ccccc12
6 | 3.27 | N#C/C(C(=O)Nc1ccc([N+](=O)[O-])cc1)=C(/O)C1CC1
7 | 6.70 | O=C(Nc1ccccc1C(F)(F)F)Nc1cccc2ccccc12
8 | 2.97 | N#C/C(C(=O)Nc1ccc(C(F)(F)F)cc1)=C(/O)C1CC1
9 | 6.60 | O=C(Nc1ccccc1F)c1ccc2ccccc2c1
10 | 3.15 | N#C/C(C(=O)Nc1ccc(C#N)cc1)=C(/O)C1CC1
11 | 6.26 | O=C(Nc1ccc(Cl)cc1)Nc1cccc2cccnc12
12 | 6.82 | Cc1c(C(=O)Nc2ccc(F)c(F)c2)cccc1[N+](=O)[O-]
13 | 3.06 | Cc1ccc(NC(=O)/C(C#N)=C(\O)C2CC2)cc1
14 | 7.00 | Cc1c(C(=O)Nc2cccc3ccccc23)cccc1[N+](=O)[O-]
15 | 7.00 | O=C(Nc1ccc(Cl)cc1Cl)c1ccc2ccccc2c1

Row | Structure (SMILES) | pIC50
16 | Cc1c(C(=O)Nc2cc(Cl)cc(Cl)c2)cccc1[N+](=O)[O-] | 6.82

What follows are molecules tested on Plasmodium falciparum (assay: Antiplasmodial activity against Plasmodium falciparum assessed as inhibition of [3H]hypoxanthine incorporation).
Format: functional, organism-based

Row | pIC50 | Structure (SMILES)
17 | < 5.00 | COc1ccc(NC(=O)c2ccccc2)cc1Cl
18 | < 5.00 | Cc1cccc(NC(=O)c2ccccc2)c1
19 | 5.24 | O=C(Nc1ccc(F)c(Cl)c1)c1ccccc1
20 | < 5.00 | O=C(Nc1ccc(Cl)cc1)c1ccccc1
21 | < 5.00 | O=C(Nc1ccccc1Cl)c1ccccc1
22 | < 5.00 | Cc1ccccc1NC(=O)c1ccccc1 [N-O-TOLYLBENZAMIDE]
23 | 5.06 | O=C(Nc1cccc(Cl)c1)c1ccccc1
24 | < 5.00 | O=C(Nc1ccc(Br)cc1)c1ccccc1
25 | < 5.00 | Cc1ccc(NC(=O)c2ccccc2)cc1
26 | < 5.00 | O=C(Nc1cccc([N+](=O)[O-])c1)c1ccccc1
27 | < 5.00 | O=C(Nc1ccccc1)c1ccccc1 [N-PHENYLBENZAMIDE]

Continued, molecule first:

Row | Structure (SMILES) | pIC50
28 | O=C(Nc1ccc([N+](=O)[O-])cc1)c1ccccc1 | < 5.00
29 | O=C(Nc1cccc(Cl)c1Cl)c1ccccc1 | < 5.00
30 | C[C@H]1[C@H](OC(=O)CCC(=O)O)O[C@@H]2O[C@@]3(C)CC[C@H]4[C@H](C)CC[C@@H]1[C@@]24OO3 [ARTESUNATE] | 7.77
31 | O=C(Nc1ccc(Cl)cc1Cl)c1ccccc1 | < 5.00
32 | O=C(Nc1ccccc1[N+](=O)[O-])c1ccccc1 | < 5.00

— ChEMBL document CHEMBL3045219, “Molecular modeling studies, synthesis and biological evaluation of derivatives of N-phenylbenzamide as Plasmodium falciparum dihydroorotate dehydrogenase (PfDHODH) inhibitors” (Med Chem Res, 2011)
